Assay results published in patent US10076116B2, “N-cycloalkyl-N-(biheterocyclymethylene)-(thio)carboxamide derivatives” (BAYER CROPSCIENCE AKTIENGESELLSCHAFT, priority 2013, dated 2018).

System: not listed separately
Experiment: log P by HPLC on reversed-phase column (C 18), EEC Directive 79/831 Annex V.A8
Assay type: physicochemical
Details: HPLC C 18, 40° C., 0.1% aqueous formic acid and acetonitrile, gradient 10% to 90% acetonitrile
Description: In table 1, the log P values were determined in accordance with EEC Directive 79/831 Annex V.A8 by HPLC (High Performance Liquid Chromatography) on a reversed-phase column (C 18), using the method described below: Temperature: 40° C.; Mobile phases: 0.1% aqueous formic acid and acetonitrile; linear gradient from 10% acetonitrile to 90% acetonitrile. Calibration was carried out using unbranched alkan-2-ones (comprising 3 to 16 carbon atoms) with known log P values (determination of the log P values by the retention times using linear interpolation between two successive alkanones). lambda-max-values were determined using UV-spectra from 200 nm to 400 nm and the peak values of the chromatographic signals.

Row | Structure (SMILES) | logP
1 | Cc1noc(C)c1-c1c(CN(C(=O)c2c(C(F)F)nn(C)c2F)C2CC2)sc2ccccc12 [Example I.55] | 3.51
2 | Cn1cc(C(=O)N(Cc2cc(Br)cnc2Oc2cnc3ccccc3c2)C2CC2)c(C(F)F)n1 [Example I.56] | 3.09
3 | Cn1cc(C(=O)N(Cc2cc(Br)cnc2Sc2cnc3ccccc3c2)C2CC2)c(C(F)F)n1 [Example I.57] | 3.27
4 | Cn1cc(C(=O)N(Cc2cc(Br)cnc2Sc2nccs2)C2CC2)c(C(F)F)n1 [Example I.58] | 3.09
5 | Cn1nc(C(F)F)c(C(=O)N(Cc2nn(-c3ccccc3)cc2C2=CCOCC2)C2CC2)c1F [I.02] | 3.26
6 | Cn1nc(C(F)F)c(C(=O)N(Cc2nn(-c3ccccc3)cc2C2CCOCC2)C2CC2)c1F [I.04] | 3.15
7 | Cn1nc(C(F)F)c(C(=S)N(Cc2nn(-c3ccccc3)cc2-c2ccc3c(ccn3C)c2)C2CC2)c1F [I.05] | 4.64
8 | Cc1ccc(-c2ccsc2CN(C(=O)c2sc(C)nc2C(F)F)C2CC2)s1 [I.06] | 4.08
9 | Cc1ccc(-c2ccsc2CN(C(=O)c2nn(C)nc2C(F)F)C2CC2)s1 [I.07] | 4.11
10 | Cc1ccc(-c2ccsc2CN(C(=O)c2ccsc2Br)C2CC2)s1 [I.08] | 4.69
11 | Cc1ccc(-c2ccsc2CN(C(=O)c2cn(C)cc2C(F)(F)F)C2CC2)s1 [I.09] | 4.18
12 | Cc1cc(C(=O)N(Cc2sccc2-c2ccc(C)s2)C2CC2)c(C)o1 [I.10] | 4.54
13 | Cn1nc(C(F)F)c(C(=O)N(Cc2ncc(C(F)(F)F)cc2-c2ccc(Cl)s2)C2CC2)c1F [I.18] | 4.54
14 | Cn1nc(C(F)F)c(C(=O)N(Cc2ncc(C(F)(F)F)cc2-c2csc3ccccc23)C2CC2)c1F [I.20] | 4.46
15 | Cc1cscc1-c1cc(C(F)(F)F)cnc1CN(C(=O)c1c(C(F)F)nn(C)c1F)C1CC1 [I.22] | 4.12
16 | CC(=O)c1ccc(-c2cc(C(F)(F)F)cnc2CN(C(=O)c2c(C(F)F)nn(C)c2F)C2CC2)s1 [I.24] | 3.48
17 | Cn1nc(C(F)F)c(C(=O)N(Cc2ncc(C(F)(F)F)cc2-c2cc3ccccc3s2)C2CC2)c1F [I.25] | 4.73
18 | Cn1nc(C(F)F)c(C(=O)N(Cc2ncc(C(F)(F)F)cc2-c2ccoc2)C2CC2)c1F [I.26] | 3.48
19 | Cn1nc(C(F)F)c(C(=O)N(Cc2ncc(C(F)(F)F)cc2-c2cnc3ccccc3c2)C2CC2)c1F [I.27] | 3.25
20 | Cn1nc(C(F)F)c(C(=O)N(Cc2ncc(C(F)(F)F)cc2-c2cc3ccccc3nc2O)C2CC2)c1F [I.28] | 2.76

Row | Structure (SMILES) | logP
21 | Cn1nc(C(F)F)c(C(=O)N(Cc2ncc(C(F)(F)F)cc2-c2ccco2)C2CC2)c1F [I.30] | 3.68
22 | Cc1csc(-c2cc(C(F)(F)F)cnc2CN(C(=O)c2c(C(F)F)nn(C)c2F)C2CC2)c1 [I.32] | 4.27
23 | Cc1ccc(-c2cc(C(F)(F)F)cnc2CN(C(=O)c2c(C(F)F)nn(C)c2F)C2CC2)o1 [I.33] | 3.69
24 | Cc1ccsc1-c1cc(C(F)(F)F)cnc1CN(C(=O)c1c(C(F)F)nn(C)c1F)C1CC1 [I.34] | 4.11
25 | Cn1nc(C(F)F)c(C(=S)N(Cc2ncc(C(F)(F)F)cc2-c2cnc3ccccc3c2)C2CC2)c1F [I.35] | 3.90
26 | Cn1nc(C(F)F)c(C(=S)N(Cc2ncc(C(F)(F)F)cc2-c2ccoc2)C2CC2)c1F [I.36] | 4.03
27 | Cc1cscc1-c1cc(C(F)(F)F)cnc1CN(C(=O)c1cn(C)nc1C(F)F)C1CC1 [I.38] | 3.69
28 | Cn1cc(C(=O)N(Cc2ncc(C(F)(F)F)cc2-c2cccs2)C2CC2)c(C(F)F)n1 [I.39] | 3.46
29 | Cn1cc(C(=O)N(Cc2ncc(C(F)(F)F)cc2-c2ccco2)C2CC2)c(C(F)F)n1 [I.40] | 3.29
30 | Cn1cc(C(=O)N(Cc2ncc(C(F)(F)F)cc2-c2csc3ccccc23)C2CC2)c(C(F)F)n1 [I.42] | 3.92
31 | Cn1cc(C(=O)N(Cc2ncc(C(F)(F)F)cc2-c2coc3ccccc23)C2CC2)c(C(F)F)n1 [I.43] | 3.73
32 | Cn1cc(C(=O)N(Cc2ncc(C(F)(F)F)cc2-c2cnc3ccccc3c2)C2CC2)c(C(F)F)n1 [I.44] | 2.82
33 | Cn1cc(C(=O)N(Cc2ncc(C(F)(F)F)cc2-c2ccnc3cc(Cl)ccc23)C2CC2)c(C(F)F)n1 [I.45] | 3.27
34 | Cn1cc(C(=O)N(Cc2ncc(C(F)(F)F)cc2-c2ccoc2)C2CC2)c(C(F)F)n1 [I.46] | 3.15
35 | Cn1cncc1-c1c(CN(C(=O)c2c(C(F)F)nn(C)c2F)C2CC2)sc2ccccc12 [I.48] | 1.66
36 | CC(C)c1nc(-c2c(CN(C(=O)c3c(C(F)F)nn(C)c3F)C3CC3)sc3ccccc23)cs1 [I.49] | 4.61
37 | Cn1ccc(-c2c(CN(C(=O)c3c(C(F)F)nn(C)c3F)C3CC3)sc3ccccc23)c1 [I.51] | 3.89
38 | Cc1occc1-c1c(CN(C(=O)c2c(C(F)F)nn(C)c2F)C2CC2)sc2ccccc12 [I.52] | 4.20
39 | Cn1nc(C(F)F)c(C(=O)N(Cc2sc3ccccc3c2-c2cncnc2)C2CC2)c1F [I.54] | 2.76

Same assay, conditions: reversed-phase HPLC column (C 18); HPLC C 18, 40° C., 0.1% aqueous formic acid and acetonitrile, gradient 10% to 90% acetonitrile

Row | Structure (SMILES) | chromatographic logP
40 | Cn1nc(C(F)F)c(C(=O)N(Cc2ncc(C(F)(F)F)cc2-c2ccsc2)C2CC2)c1F [I.17, N-cyclopropyl-3-(difluoromethyl)-5-fluoro-1-methyl-N-{[3-(3-thienyl)-5-(trifluoromethyl)pyridin-2-yl]methyl}-1H-pyrazole-4-carboxamide] | 3.67
41 | Cc1ccc(-c2ccsc2CNC2CC2)s1 [IIb.01, N-[(5-methyl-2,3′-bithiophen-2′-yl)methyl]cyclopropanamine] | 1.39
42 | Cn1nc(C(F)F)c(C(=O)N(Cc2ncc(C(F)(F)F)cc2Cl)C2CC2)c1F [N-{[3-chloro-5-(trifluoromethyl)pyridin-2-yl]methyl}-N-cyclopropyl-3-(difluoromethyl)-5-fluoro-1-methyl-1H-pyrazole-4-carboxamide] | 3.35

System: Puccinia recondita
Experiment: In vivo preventive test on Puccinia recondita (brown rust on wheat)
Details: dose 125 ppm; in very similar conditions; prior-art analogues
Description: Example C: In Vivo Preventive Test on Puccinia recondita (Brown Rust on Wheat) […]
The young plants of wheat are treated by spraying the active ingredient prepared as described above. […]
After 24 hours, the plants are contaminated by spraying the leaves with an aqueous suspension of Puccinia recondita spores. The contaminated wheat plants are incubated for 24 hours at 20° C. and at 100% relative humidity and then for 10 days at 20° C. and at 70-80% relative humidity.
The test is evaluated 11 days after the inoculation. 0% means an efficacy which corresponds to that of the control plants while an efficacy of 100% means that no disease is observed.

Row | Structure (SMILES) | Efficacy (Table C2) [%]
43 | Cc1nn(C)c(F)c1C(=O)N(Cc1cn(-c2ccccc2)c2ccccc12)C1CC1 [13 from WO-2009/016222, N-cyclopropyl-5-fluoro-1,3-dimethyl-N-[(1-phenyl-1H-indol-3-yl)methyl]-1H-pyrazole-4-carboxamide] | 17
44 | Cn1cc(C(=O)N(Cc2cn(-c3ccccc3)c3ccccc23)C2CC2)c(C(F)F)n1 [18 from WO-2009/016222, N-cyclopropyl-3-(difluoromethyl)-1-methyl-N-[(1-phenyl-1H-indol-3-yl)methyl]-1H-pyrazole-4-carboxamide] | 0

Same assay, conditions: dose 500 ppm; in very similar conditions; prior-art analogues

Row | Structure (SMILES) | Efficacy (Table C3) [%] | Efficacy (Table C2) [%]
45 | Cc1nn(C)c(F)c1C(=O)N(Cc1nc(-c2ccc(Cl)cc2)cs1)C1CC1 [12 from WO2008/015189, N-{[4-(4-chlorophenyl)-1,3-thiazol-2-yl]methyl}-N-cyclopropyl-5-fluoro-1,3-dimethyl-1H-pyrazole-4-carboxamide] | 0 | 
46 | Cc1nn(C)c(F)c1C(=O)N(Cc1cn(-c2ccccc2)c2ccccc12)C1CC1 [13 from WO-2009/016222, N-cyclopropyl-5-fluoro-1,3-dimethyl-N-[(1-phenyl-1H-indol-3-yl)methyl]-1H-pyrazole-4-carboxamide] |  | 78
47 | Cc1nc(-c2ccc(Cl)cc2)sc1CN(C(=O)c1c(C)nn(C)c1F)C1CC1 [17 from WO2008/015189, N-{[2-(4-chlorophenyl)-4-methyl-1,3-thiazol-5-yl]methyl}-N-cyclopropyl-5-fluoro-1,3-dimethyl-1H-pyrazole-4-carboxamide] | 10 | 
48 | Cn1cc(C(=O)N(Cc2cn(-c3ccccc3)c3ccccc23)C2CC2)c(C(F)F)n1 [18 from WO-2009/016222, N-cyclopropyl-3-(difluoromethyl)-1-methyl-N-[(1-phenyl-1H-indol-3-yl)methyl]-1H-pyrazole-4-carboxamide] |  | 0

Same assay, conditions: in very similar conditions; dose of 500 and 125 ppm; analogues of WO2009/016222 and WO2008/037789

Row | Structure (SMILES) | protection
49 | Cc1nn(C)c(F)c1C(=O)N(Cc1cn(-c2ccccc2)c2ccccc12)C1CC1 [13 from WO-2009/016222, N-cyclopropyl-5-fluoro-1,3-dimethyl-N-[(1-phenyl-1H-indol-3-yl)methyl]-1H-pyrazole-4-carboxamide] | good (at least 70%) to no protection
50 | Cn1cc(C(=O)N(Cc2cn(-c3ccccc3)c3ccccc23)C2CC2)c(C(F)F)n1 [18 from WO-2009/016222, N-cyclopropyl-3-(difluoromethyl)-1-methyl-N-[(1-phenyl-1H-indol-3-yl)methyl]-1H-pyrazole-4-carboxamide] | good (at least 70%) to no protection
